# In patent US9682158B2, “Therapy of malignant neoplasias” (priority 2005, dated 2017):
# Entries after “also recorded” stand apart in the source; their conditions may differ.
# What was measured:
# [1] = system: glioma, pancreas, prostate and breast cancer cells; assay: Cell survival after treatment with radiolabeled L-phenylalanines, further tumor cells; format: cell-based; conditions: in vitro
# Method: (§1) After development of a confluent lawn of cells, the cultures were exposed to 0.001-10 μCi/ml of the corresponding radiopharmaceutical for up to 48 hours at 37° C./5% CO2. In a parallel experiment, cells were irradiated using a 6-MeV linear accelerator with doses from 2 to 15 Gy for comparison of cell survival rate of both methods. In order to be able to observe the morphology of the glioma cells, the cells were grown on standard glass slides or in standard culture dishes. Then the medium was removed and the cells were fixed either in 70% ethanol for at least 30 min on ice for flow-cytometric analyses after staining or in 4% neutral buffered formalin for immunohistopathological analyse.
# (§2) Human tumor cells grown on standard glass slides were fixed in 4% neutral buffered formalin and stained with the Giemsa method. The cell number was calculated in 10 consecutive high power fields (×40).
# [2] = system: human tumor cells, especially malignant gliomas; assay: Flow-cytometric analyses of stained cells after treatment (primary necrosis and apoptosis); format: cell-based; conditions: flow cytometry; compared with external irradiation up to 15 Gy
# Method: as §1
# glioma [3] = assay: Clinical studies with IPA-123 (SPECT imaging); format: in vivo, human; conditions: 250 MBq
# Method: IPA was prepared, as described in example 2. […] Patients were injected with 250 MBq IPA-123, and subsequently imaged at 30 min, 3 h and, where possible, 24 h post injection, using a triple head SPECT camera (Siemens Multi-SPECT III, Erlangen, Germany) with low energy high resolution (LEHR) collimator and iterative reconstruction for cerebral (FIG. 14) imaging. Whole body imaging (FIG. 15) was performed using a Hawkeye dual head SPECT camera (General Electrics Medical Systems, Uppsala, Sweden) with high energy collimator, and iterative reconstruction at 0 min, 1 h and 3 h after injection of 250 MBq IPA-123. SPECT images were acquired using 3-degree angular steps. During a 360° rotation 120 projections were recorded into a 128*128 matrix, with an acquisition time of 40 s per image. Images were reconstructed using manufacturer's software. Anatomical co-alignment with MRI data was performed using HERMES software for nuclear medicine (Nuclear Diagnostics, Stockholm, Sweden). Tumor uptake was visually assessed by two adequately trained, independent nuclear medicine physicians. In discordant cases, a consensus rating was agreed upon. 86% of patients with histologically confirmed tumor show IPA-123 uptake.
# glioma [4] = conditions: cited from earlier work
# glioma [5] = assay: Clinical study with IPA-124 (PET imaging); format: in vivo, human
# Method: IPA was prepared, as described in example 3. […] The patient was injected with 50 MBq IPA-124, and subsequently dynamically imaged at 40-80 min and at 6 days post injection using a dedicated PET camera (Siemens ECAT-ART Scanner, Siemens-CTI, Knoxville, Tenn., USA). SPECT images were acquired using 3-degree angular steps. During a 360° rotation 120 projections were recorded into a 128*128 matrix, with an acquisition time of 40 s per image. Images were reconstructed using manufacturer's software. Anatomical co-alignment with MRI data was performed using HERMES software for nuclear medicine (Nuclear Diagnostics, Stockholm, Sweden) (FIGS. 12a and b). Tumor uptake was visually assessed by two adequately trained, independent nuclear medicine physicians. The patient was operated on day 2 post injection. Post-operative images continue to show strong IPA uptake in projection to the resection margins corresponding to a large portion of tumor tissue which remained in situ. […] Post-operative images were semiquantitatively analysed. A region of interest (ROI) was drawn over the area of increased IPA-124 uptake and compared to a mirrored reference ROI in the contralateral healthy hemisphere using the median sagittal plane as mirror plane (FIG. 12c). Activity concentration in the remaining tumor tissue exceeded activity in the reference region by a factor of 8.86 after 6 days.
# [6] = physical half life of the radionuclide; cited from earlier work
# [7] = system: T5135 primary human glioma cell line; assay: Cell survival rate after treatment with radiolabeled L-phenylalanines; format: cell-based; conditions: 24 hours exposure, 1 μCi/ml, compared to parallel grown cell cultures without exposure
# Method: (§3) Five human glioma cell lines, one rat glioma cell line, two human prostate cancer cell lines and one human breast cancer cell line were investigated. The human glioma cell lines Tx 3868 and T 5135 (from primary human glioblastoma multiforme), and the rat C6 glioma cells were provided by the Institute of Human Genetics, University of the Saarland (Homburg, Germany). The human high-grade glioma cells, designated as A1207, M059K and U373MG, the human prostate cancer cell lines PC3 and […], and the human breast cancer cell line MCF-07 (American Type Culture Collection, Rockville, Md.), were purchased commercially or provided by the oncological research laboratory of the University Medical Center of Saarland (Homburg, Germany). Cells were cultivated in RPMI-1640 medium or in Dulbecco's modified Eagle medium (sodium pyruvate-free, supplemented with […] and pyridoxine), respectively, supplemented with 10% (v/v) heat-inactivated foetal calf serum (FCS), penicillin (50 U/ml), streptomycin (50 μg/ml), and 50 μl insulin (PromoCell, Heidelberg, Germany). All cells lines were maintained in appropriate flasks in a humidified incubator (5% CO2) at 37° C. Before the experiment, subconfluent cell cultures were trypsinized with a solution of 0.05% trypsin containing 0.02% EDTA but without Ca^2+ and Mg^2+, and resuspended in fresh medium to various cell concentrations after counting by vital staining on a hemocytometer, depending upon the study. Cells were free of mycoplasms. Viability of the cells was >95%.
# (§4) After development of a confluent lawn of cells, the cultures were exposed to 0.001-10 μCi/ml of the corresponding radiopharmaceutical for up to 48 hours at 37° C./5% CO2. In a parallel experiment, cells were irradiated using a 6-MeV linear accelerator with doses from 2 to 15 Gy for comparison of cell survival rate of both methods. […]
# as §2
# [8] = system: Tx 3868 primary human glioma cell line; assay: as above; format: cell-based
# Method: as §3, §4, §2
# [9] = system: orthotopically implanted rat and human gliomas; assay: IPA-131 endoradiotherapy in rats with orthotopically implanted rat and human gliomas, Kaplan-Meier survival; format: in vivo
# Method: (§5) The first studies were carried out on in male Wistar rats for C6 rat glioma model and in RNU rats for human glioma models. Wistar rats and RNU rats were from Charles River (Sulzfeld, Germany). The C6 rat glioma model has been previously described in detail. Its biological behavior closely simulates that of human high-grade gliomas.
# (§6) One million (10^6) C6 rat glioma cells or 10^6 primary human Tx3868, […], A1207, M059K and U373MG high-grade glioma cells were stereotactically implanted into the left frontal region of Wistar rats or RNU rats while under chloral hydrate anaesthesia as described previously. The animals were held in metabolic cages. […] For each cell line, 6 animals with radiologically (MRI or by gamma camera) confirmed brain tumor were randomly chosen as control animals, a second group of 15 animals were treated with 20 MBq of the radiolabeled L-phenylalanine in two fractions of 10 MBq each via a Teflon catheter in a tail vein 9 and 18 days after tumour implantation. While a third group of 15 rats were irradiated with 4-8 Gy. Survival time was calculated according to the Kaplan-Meier method. Surviving animals were sacrificed after 90 and 180 days. All rat brains were examined histologically after biopsy.
# C6 rat gliomas = assay: IPA-131 endoradiotherapy of orthotopic C6 rat gliomas; format: in vivo
# Method: […] Wistar rats and RNU rats were from Charles River (Sulzfeld, Germany). The C6 rat glioma model has been previously described in detail. Its biological behavior closely simulates that of human high-grade gliomas.
# as §6
# Magnetic resonance imaging was performed 9 days after tumour implantation (before drug administration) and after the second injection of radiolabeled phenylalanine at day 18 as well as possibly at the day of scarification, using a 2.4-Tesla small animal magnetic resonance tomograph (Brucker Biospec 2.4, Karlruhe, Germany). This system was equipped with a rat coil to hold the animal and transmit homogeneous signals. All rats were imaged while under chloral hydrate anaesthesia (250 mg/kg, i.m.). Multiple axial and coronal images (T1- and T2-weighted) were acquired for 20 min without contrast media. The parameters used were: T1-weighted (TR=100 msec, TE=6.5 msec, flip angle 30°, FOV=2×2 cm, 256×128×64 matrix) and T2-weighted (TR=500 msec, TE=17.5 msec, 1 acquisition, RARE factor 16, FOV=2×2 cm, 256×256×32 matrix, slap-thickness 16 mm).
# (§7) At autopsy of the rats and mice, besides the brains, other organs were harvested including the heart, lung, liver, spleen, kidney, skin, and colon. […]
# [10] = system: human Tx3868 glioblastomas; assay: IPA-131 endoradiotherapy of orthotopic human Tx3868 glioblastomas; format: in vivo; conditions: dose 20 MBq, RNU rats
# Method: as §5, §6, §7
# [11] = system: human A1207 glioblastomas; assay: IPA-131 endoradiotherapy of orthotopic human A1207 glioblastomas; format: in vivo; conditions: dose 20 MBq, RNU rats
# Method: as §5, §6, §7
# [12] = Clinical and histological safety observation of treated glioma rats; format: in vivo, rat
# Method: as §6
# At autopsy of the rats and mice, besides the brains, other organs were harvested including the heart, lung, liver, spleen, kidney, skin, and colon. The brains were cut in coronal slices of about 2-3 mm thickness. All tissues from the animals were fixed in 4% neutral buffered formalin and embedded in paraffin wax. Sections were stained with hematoxylin-eosin and Verhoeff-van Gieson and examined histopathologically.
# glioma [13] = assay: Clinical study with IPA-131 (SPECT imaging); format: in vivo, human; conditions: 100 MBq
# Method: IPA was prepared, as described in example 3. […] The patient was injected with 100 MBq IPA-131 and subsequently imaged at 30 min and at 26 h post injection using a Hawkeye dual head SPECT camera (General Electrics Medical Systems, Uppsala, Sweden) with high energy collimator, and iterative reconstruction for cerebral (FIGS. 13a and b) and whole body (FIGS. 13c and d) imaging. SPECT images were acquired using 3-degree angular steps. During a 360° rotation 120 projections were recorded into a 128*128 matrix, with an acquisition time of 40 s per image. Images were reconstructed using manufacturer's software. Tumor uptake was visually assessed by two adequately trained, independent nuclear medicine physicians.
compound,measurement,setting,value
"3,4-[^77Br]bromo-L-Phenylalanine [BrPA-77]",cell count / cell survival compared with IPA-131 results,[1],Identical results
same,induction of primary necrosis and apoptosis,[2],"dose dependent induction of primary necrosis and apoptosis, which was more significant than that caused by external irradiation, even with 15 Gy"
"3,4-[^211I]astatine-L-phenylalanine [AtPA-211]",cell count / cell survival compared with IPA-131 results,[1],Identical results
same,induction of primary necrosis and apoptosis,[2],"dose dependent induction of primary necrosis and apoptosis, which was more significant than that caused by external irradiation, even with 15 Gy"
"N[C@@H](Cc1ccc([123I])cc1)C(=O)O [IPA-123, 4-[^123I]iodo-L-phenylalanine]",patients with histologically confirmed tumor showing uptake,glioma [3]; visual assessment,86%
same,retention of the tracer in tumor,glioma [3]; patient with glioblastoma,at least 24 h
same,accumulation in gliomas,"glioma [4]; after intravenous administration, ref [14]",accumulates specifically in low and high grade gliomas with surprisingly marked retention in tumor cells
same,blood-brain barrier passage,"glioma [4]; after intravenous administration, refs [13, 14]",crosses the blood-brain barrier
same,accumulation in the normal cerebral parenchyma,"glioma [4]; refs [13, 14]",moderate and decreases rapidly with time
"N[C@@H](Cc1ccc([124I])cc1)C(=O)O [IPA-124, 4-[^124I]iodo-L-phenylalanine]",tumor uptake / targeting in glioma patient,"glioma [5]; 50 MBq, PET 40-80 min and 6 days post injection",retained in high activity concentrations by tumor tissue for prolonged periods; also recorded: Successful tumor targeting
same,tolerability,"glioma [5]; patient, 50 MBq",well tolerated
same,retention of tracer in glioma,"glioma [5]; patient, 50 MBq, PET",at least 6 days
same,"tumor activity relative to reference region (contralateral healthy tissue), factor","glioma [5]; post-operatively remaining tumor tissue, 6 days post injection of 50 MBq",8.86
same,half life,[6],101 h
"N[C@@H](Cc1ccc([131I])cc1)C(=O)O [IPA-131, 4-[^131I]iodo-L-phenylalanine]",cell survival rate,[7],< 20%
same,cell survival rate,"[8]; 24 hours exposure, 1 μCi/ml, compared to parallel grown cell cultures without exposure",less than 22%
same,mode of cell death (cytological),[8]; primary human glioma cell lines after 24 hours exposure,apoptosis
same,induction of primary necrosis and apoptosis,[2],"dose dependent induction of primary necrosis and apoptosis, which was more significant than that caused by external irradiation, even with 15 Gy"
same,survival vs maximum tolerable external irradiation,"[9]; Kaplan-Meier analysis, 20 MBq vs external irradiation",significantly longer survival than those treated by maximum tolerable doses of external irradiation
same,survival time of treated rats vs control group,"[9]; all glioma models, 20 MBq i.v. in two fractions",significantly increased
same,Kaplan-Meier survival of treated animals group,"C6 rat gliomas; C6-glioma rats, 81 days after implantation, p=<0.05",significant longer survival
same,"tumor disappearance, intravital small animal MRI imaging","C6 rat gliomas; dose 20 MBq, RNU rats",subgaleal and intracerebral tumor disappearance
same,tumour on MRI,"C6 rat gliomas; surviving C6-glioma rats, 81 days after implantation",no tumour was demonstrable with MRI
same,metabolic and H & E staining of fresh-frozen tissue sections,[10],"metabolic normalisation, and histological tumor disappearance"
same,metabolic and H & E staining of fresh-frozen tissue sections,[11],"metabolic normalisation, and histological tumor disappearance"
same,seizures,[12]; treated animals,No seizures were observed
same,liver and kidney histomorphology,"[12]; treated animals, autopsy",did not show any histomorphological abnormality
same,adverse therapy-related events and toxic effects,"[12]; treated glioma rats, clinical observation",no adverse therapy-related events and no toxic effects were observed clinically
same,tumor uptake / targeting in glioma patient,glioma [13]; SPECT 30 min and 26 h post injection,not only taken up but also retained by glioma tissue; also recorded: Successful tumor targeting
same,tolerability,glioma [13]; patient,well tolerated
same,retention in tumor,"glioma [13]; patient, SPECT",at least 26 hours
